Measurements reported in ChEMBL document CHEMBL3600322, “Phenoxymethyl 1,3-oxazoles and 1,2,4-oxadiazoles as potent and selective agonists of free fatty acid receptor 1 (GPR40)” (Bioorg Med Chem Lett, 2015).
pEC50: −log10 of the molar value. ≈ marks a conversion by molar mass, not a printed value.

Assays:
CYP1A2 = molecular target: T1, CYP1A2 (Homo sapiens, UniProt P05177); test: Inhibition of CYP1A2 (unknown origin) at 5 uM by luminescent readout-based method; format: ADME
T1 sequence (P05177 whole entry): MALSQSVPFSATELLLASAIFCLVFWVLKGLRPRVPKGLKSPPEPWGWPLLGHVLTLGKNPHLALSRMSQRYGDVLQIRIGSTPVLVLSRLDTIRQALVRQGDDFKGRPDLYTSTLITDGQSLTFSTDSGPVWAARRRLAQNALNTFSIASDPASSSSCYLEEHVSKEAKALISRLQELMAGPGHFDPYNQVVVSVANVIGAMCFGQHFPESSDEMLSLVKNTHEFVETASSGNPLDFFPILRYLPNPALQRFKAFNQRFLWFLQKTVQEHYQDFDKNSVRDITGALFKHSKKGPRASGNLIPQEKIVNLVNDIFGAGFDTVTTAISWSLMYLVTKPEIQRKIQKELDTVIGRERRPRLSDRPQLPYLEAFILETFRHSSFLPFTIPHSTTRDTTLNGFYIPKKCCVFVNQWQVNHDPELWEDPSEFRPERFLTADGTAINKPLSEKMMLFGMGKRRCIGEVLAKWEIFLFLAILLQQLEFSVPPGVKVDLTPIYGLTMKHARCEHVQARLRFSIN

[1] = molecular target: T2, Free fatty acid receptor 4 (Homo sapiens, UniProt Q5NUL3); test: Agonist activity at GPR120 (unknown origin) expressed in CHO cells by FLIPR calcium flux assay in presence of 0.1% bovine serum albumin; format: functional, cell-based
T2 sequence (Q5NUL3 whole entry): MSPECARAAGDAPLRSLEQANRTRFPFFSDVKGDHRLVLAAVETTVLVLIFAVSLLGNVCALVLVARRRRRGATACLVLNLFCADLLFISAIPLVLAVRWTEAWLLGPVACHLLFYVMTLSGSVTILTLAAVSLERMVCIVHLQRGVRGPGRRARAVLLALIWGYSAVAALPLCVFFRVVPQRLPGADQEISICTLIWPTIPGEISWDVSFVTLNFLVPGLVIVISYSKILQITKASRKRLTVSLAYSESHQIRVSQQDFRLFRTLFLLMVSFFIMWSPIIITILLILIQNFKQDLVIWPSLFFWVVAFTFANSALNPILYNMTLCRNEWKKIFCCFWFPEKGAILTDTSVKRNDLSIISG

CYP3A4 = CYP3A4 (Homo sapiens, UniProt P08684); test: Inhibition of CYP3A4 (unknown origin) at 5 uM by luminescent readout-based method; format: ADME
Sequence of CYP3A4 (P08684 whole entry): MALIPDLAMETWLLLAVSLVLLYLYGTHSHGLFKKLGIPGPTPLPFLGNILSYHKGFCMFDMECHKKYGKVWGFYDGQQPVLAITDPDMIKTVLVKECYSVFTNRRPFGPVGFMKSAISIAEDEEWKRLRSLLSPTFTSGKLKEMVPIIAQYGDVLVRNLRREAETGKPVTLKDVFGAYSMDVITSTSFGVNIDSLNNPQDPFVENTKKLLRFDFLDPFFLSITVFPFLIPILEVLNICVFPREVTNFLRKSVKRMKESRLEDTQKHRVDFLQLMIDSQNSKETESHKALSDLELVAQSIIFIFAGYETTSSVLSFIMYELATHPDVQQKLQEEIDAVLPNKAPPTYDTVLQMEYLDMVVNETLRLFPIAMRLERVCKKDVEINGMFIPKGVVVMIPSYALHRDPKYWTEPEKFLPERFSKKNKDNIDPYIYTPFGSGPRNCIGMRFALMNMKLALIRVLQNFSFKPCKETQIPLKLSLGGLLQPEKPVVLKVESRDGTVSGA

[2] = Plasma protein binding in human at 1 uM after 5 hrs by HPLC-MS/MS analysis; format: ADME, cell-free; conditions: read-out: PPB (converted)
CYP2D6 [3] = molecular target: T3, CYP2D6 (Homo sapiens, UniProt P10635); test: Inhibition of CYP2D6 (unknown origin) at 5 uM by luminescent readout-based method; format: ADME
T3 sequence (P10635 whole entry): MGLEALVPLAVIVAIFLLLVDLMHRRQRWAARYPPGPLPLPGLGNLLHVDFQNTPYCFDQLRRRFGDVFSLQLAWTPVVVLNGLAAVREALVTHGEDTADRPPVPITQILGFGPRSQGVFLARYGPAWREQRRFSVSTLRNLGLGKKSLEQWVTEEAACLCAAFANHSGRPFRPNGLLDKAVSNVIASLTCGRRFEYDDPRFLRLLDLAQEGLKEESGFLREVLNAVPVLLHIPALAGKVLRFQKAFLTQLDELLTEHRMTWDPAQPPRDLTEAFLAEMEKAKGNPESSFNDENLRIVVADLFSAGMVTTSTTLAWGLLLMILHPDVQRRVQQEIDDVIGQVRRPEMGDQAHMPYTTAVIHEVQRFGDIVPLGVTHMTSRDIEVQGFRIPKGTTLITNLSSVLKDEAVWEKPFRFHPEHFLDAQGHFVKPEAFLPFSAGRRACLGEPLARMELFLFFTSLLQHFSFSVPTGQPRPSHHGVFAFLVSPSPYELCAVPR

[4] = Kinetic solubility of the compound in phosphate-buffered saline at pH 7.4 by filter microplate technique; format: physicochemical; conditions: read-out: Kinetic_solubility
CYP2C9 [5] = molecular target: T4, CYP2C9 (Homo sapiens, UniProt P11712); test: Inhibition of CYP2C9 (unknown origin) at 5 uM by luminescent readout-based method; format: ADME
T4 sequence (P11712 whole entry): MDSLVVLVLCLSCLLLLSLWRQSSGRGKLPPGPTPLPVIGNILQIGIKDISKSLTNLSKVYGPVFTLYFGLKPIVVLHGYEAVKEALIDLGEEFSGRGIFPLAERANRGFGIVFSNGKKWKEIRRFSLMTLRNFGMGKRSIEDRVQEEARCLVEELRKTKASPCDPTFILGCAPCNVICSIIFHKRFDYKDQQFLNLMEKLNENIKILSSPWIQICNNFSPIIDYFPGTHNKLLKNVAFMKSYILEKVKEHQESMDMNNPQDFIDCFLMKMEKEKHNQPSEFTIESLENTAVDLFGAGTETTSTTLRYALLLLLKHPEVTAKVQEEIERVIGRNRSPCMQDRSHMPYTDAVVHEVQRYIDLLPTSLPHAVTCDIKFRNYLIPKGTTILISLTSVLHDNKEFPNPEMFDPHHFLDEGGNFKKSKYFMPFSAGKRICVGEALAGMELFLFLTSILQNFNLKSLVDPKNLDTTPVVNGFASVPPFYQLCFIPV

[6] = Apparent permeability from apical to basolateral side in human Caco2 cells assessed […] at 10 uM by HPLC-MS analysis; format: ADME, cell-based; conditions: Caco-2
[7] = molecular target: T5, Free fatty acid receptor 3 (Homo sapiens, UniProt O14843); test: Agonist activity at GPR41 (unknown origin) expressed in CHO cells by FLIPR calcium flux assay in presence of 0.1% bovine serum albumin; format: functional, cell-based
T5 sequence (O14843 whole entry): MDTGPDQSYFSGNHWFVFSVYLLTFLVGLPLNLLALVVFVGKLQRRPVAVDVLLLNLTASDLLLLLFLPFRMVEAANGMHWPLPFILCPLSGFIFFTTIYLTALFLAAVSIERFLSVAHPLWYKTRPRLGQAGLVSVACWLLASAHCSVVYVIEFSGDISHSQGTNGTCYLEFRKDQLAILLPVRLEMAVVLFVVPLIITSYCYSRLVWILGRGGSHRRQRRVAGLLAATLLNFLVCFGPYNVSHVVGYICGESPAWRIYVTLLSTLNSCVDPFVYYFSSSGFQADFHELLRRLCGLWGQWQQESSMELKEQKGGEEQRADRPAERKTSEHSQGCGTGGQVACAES

[8] = Half life in BALB/c mouse liver microsomes at 2 uM by HPLC-MS analysis; format: ADME
[9] = molecular target: T6, Free fatty acid receptor 1 (Homo sapiens, UniProt O14842); test: Agonist activity at GPR40 (unknown origin) expressed in CHO cells by FLIPR calcium flux assay in presence of 0.1% bovine serum albumin; format: functional, cell-based
T6 sequence (O14842 whole entry): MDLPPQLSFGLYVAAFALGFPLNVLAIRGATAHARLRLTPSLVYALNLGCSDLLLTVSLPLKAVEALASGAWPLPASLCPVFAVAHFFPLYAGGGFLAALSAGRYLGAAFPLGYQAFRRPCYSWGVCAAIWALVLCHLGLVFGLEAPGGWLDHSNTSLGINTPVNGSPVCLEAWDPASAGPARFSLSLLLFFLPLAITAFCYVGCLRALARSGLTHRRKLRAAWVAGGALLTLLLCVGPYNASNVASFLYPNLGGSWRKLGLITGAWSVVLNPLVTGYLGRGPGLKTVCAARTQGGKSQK

[10] = molecular target: T7, Free fatty acid receptor 2 (Homo sapiens, UniProt O15552); test: Agonist activity at GPR43 (unknown origin) expressed in CHO cells by FLIPR calcium flux assay in presence of 0.1% bovine serum albumin; format: functional, cell-based
T7 sequence (O15552 whole entry): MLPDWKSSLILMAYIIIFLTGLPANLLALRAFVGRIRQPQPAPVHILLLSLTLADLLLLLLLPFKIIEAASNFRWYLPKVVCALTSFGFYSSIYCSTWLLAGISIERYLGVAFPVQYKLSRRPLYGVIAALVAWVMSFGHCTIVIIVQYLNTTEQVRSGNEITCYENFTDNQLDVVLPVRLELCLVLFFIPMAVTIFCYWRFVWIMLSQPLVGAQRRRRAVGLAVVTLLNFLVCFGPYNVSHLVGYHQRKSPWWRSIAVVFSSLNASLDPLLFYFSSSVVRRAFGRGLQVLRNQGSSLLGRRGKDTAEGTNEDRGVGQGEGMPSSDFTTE

CYP2C19 [11] = molecular target: T8, CYP2C19 (Homo sapiens, UniProt P33261); test: Inhibition of CYP2C19 (unknown origin) at 5 uM by luminescent readout-based method; format: ADME
T8 sequence (P33261 whole entry): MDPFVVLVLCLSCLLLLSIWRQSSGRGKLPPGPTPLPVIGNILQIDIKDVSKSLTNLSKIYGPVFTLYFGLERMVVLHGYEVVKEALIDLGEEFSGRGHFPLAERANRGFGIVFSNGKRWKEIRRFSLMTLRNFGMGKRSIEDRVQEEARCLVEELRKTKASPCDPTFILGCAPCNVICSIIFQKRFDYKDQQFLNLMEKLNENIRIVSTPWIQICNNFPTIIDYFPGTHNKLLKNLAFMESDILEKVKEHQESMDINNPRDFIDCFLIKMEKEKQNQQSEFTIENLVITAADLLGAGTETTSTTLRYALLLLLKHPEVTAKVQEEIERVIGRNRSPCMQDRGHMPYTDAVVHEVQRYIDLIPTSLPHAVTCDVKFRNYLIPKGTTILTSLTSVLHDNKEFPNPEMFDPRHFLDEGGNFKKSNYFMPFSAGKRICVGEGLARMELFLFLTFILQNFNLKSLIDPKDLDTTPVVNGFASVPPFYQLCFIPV

[12] = molecular target: T6, Free fatty acid receptor 1; test: Agonist activity at GPR40 (unknown origin) expressed in CHO cells at 5 uM by FLIPR calcium flux assay relative to GW9508; format: functional, cell-based
CYP2C19 [13] = molecular target: T8, CYP2C19; test: Inhibition of CYP2C19 (unknown origin) at 24 uM by luminescent readout-based method; format: ADME
CYP2C9 [14] = molecular target: T4, CYP2C9; test: Inhibition of CYP2C9 (unknown origin) at 120 uM by luminescent readout-based method; format: ADME
CYP2D6 [15] = molecular target: T3, CYP2D6; test: Inhibition of CYP2D6 (unknown origin) at 1 uM by luminescent readout-based method

Structure (SMILES)	pEC50 [9]	Efficacy [12]	also measured
Cc1oc(-c2ccccc2)nc1COc1ccc(CCC(=O)O)cc1	7.24	103%	inhibition at 5 µM (CYP1A2): 8.9%; pEC50 [1]: < 5.00; inhibition at 5 µM (CYP3A4): 36.2%; fraction unbound at 5 h, 1 µM [2]: 0.014; inhibition at 5 µM (CYP2D6 [3]): 17.7%; solubility kinetic [4]: 404 µM (≈ 136 µg/mL); inhibition at 5 µM (CYP2C9 [5]): 10.8%; Papp A→B at 10 µM [6]: 15.2 ×10⁻⁶ cm/s; pEC50 [7]: < 5.00; half-life at 2 µM [8]: 7.23 h; pEC50 [10]: < 5.00; inhibition at 5 µM (CYP2C19 [11]): 23.6%
COc1ccc2[nH]c([S+]([O-])Cc3ncc(C)c(OC)c3C)nc2c1 (stereo unspecified) [OMEPRAZOLE]			inhibition at 24 µM (CYP2C19 [13]): 93.4%
O=C(O)CCc1ccc(OCc2nc(-c3ccc(C(F)(F)F)cc3)no2)cc1	6.21	73%	
COc1cccc(-c2noc(COc3ccc(CCC(=O)O)cc3)n2)c1	5.57	81%	
O=C(O)CCc1ccc(OCc2nc(-c3ccc(F)cc3)no2)cc1	6.17	66%	
Cc1cccc(-c2noc(COc3ccc(CCC(=O)O)cc3Cl)n2)c1	5.34	54%	
CC(Oc1ccc(CCC(=O)O)cc1)c1nc(-c2ccccc2)no1 (stereo unspecified)	5.62	109%	
O=C(O)CCc1ccc(OCc2nc(-c3ccccc3)no2)c(Cl)c1	4.88	95%	
CCc1ccc(-c2noc(COc3ccc(CCC(=O)O)cc3)n2)cc1	6.68	106%	
O=C(O)CCc1ccc(OCc2nc(-c3ccco3)no2)cc1	< 4.00		
O=C(O)Cc1ccc(OCc2nc(-c3cccc(Cl)c3)no2)cc1	4.73	69%	
O=C(O)CCc1ccc(OCc2nc(-c3cccc(C(F)(F)F)c3)no2)cc1	5.95	65%	
O=C(O)CCc1ccc(OCc2nc(-c3ccccc3Cl)no2)cc1	5.92	61%	
O=C(O)CCc1ccc(OCc2coc(-c3ccccc3)n2)cc1	6.15	98%	
O=C(O)CCc1ccc(OCc2ncc(-c3cccc(F)c3)o2)cc1	5.97	81%	
O=C(O)CCc1ccc(OCc2nc(-c3cccc(C(F)(F)F)c3)no2)c(Cl)c1	4.52	22%	

Structure (SMILES)	pEC50 [9]	Efficacy [12]	also measured
O=C(O)CCc1ccc(OCc2nc(-c3cccs3)no2)cc1	5.59	59%	
O=C(O)CCc1ccc(OCc2coc(-c3cccc(Cl)c3)n2)cc1	6.80	106%	
O=C(O)CCc1ccc(OCc2nc(-c3cccc(Br)c3)no2)cc1	5.90	130%	
CC(Oc1ccc(CCC(=O)O)cc1)c1nc(-c2ccc(Cl)cc2)no1 (stereo unspecified)	6.30	68%	
Cc1cc(-c2noc(COc3ccc(CCC(=O)O)cc3)n2)ccc1F	5.67	75%	
CC(Oc1ccc(CCC(=O)O)cc1)c1nc(-c2cccs2)no1 (stereo unspecified)	5.40	94%	
O=C(O)CCc1ccc(OCc2ncc(-c3ccccc3)o2)cc1	5.80	58%	
OC(Cn1cncn1)(Cn1cncn1)c1ccc(F)cc1F [FLUCONAZOLE]			inhibition at 120 µM (CYP2C9 [14]): 89.1%
COc1cccc(-c2noc(COc3ccc(CCC(=O)O)cc3Cl)n2)c1	5.52	88%	
C=C[C@H]1C[N@@]2CC[C@H]1C[C@@H]2[C@@H](O)c1ccnc2ccc(OC)cc12 [QUINIDINE]			inhibition at 1 µM (CYP2D6 [15]): 96.2%
O=C(O)CCc1ccc(OCc2nc(-c3ccccc3)no2)cc1	5.95	65%	
O=C(O)CCc1ccc(OCc2coc(-c3cccc(F)c3)n2)cc1	6.25	99%	
O=C(O)CCc1ccc(OCc2nc(-c3ccc(Cl)cc3)no2)cc1	6.27	84%	inhibition at 5 µM (CYP1A2): 25.9%; pEC50 [1]: < 5.00; inhibition at 5 µM (CYP3A4): 50.1%; fraction unbound at 5 h, 1 µM [2]: 0.001; inhibition at 5 µM (CYP2D6 [3]): -5.8%; solubility kinetic [4]: 214 µM (≈ 76.8 µg/mL); inhibition at 5 µM (CYP2C9 [5]): 16.2%; Papp A→B at 10 µM [6]: 2.1 ×10⁻⁶ cm/s; pEC50 [7]: < 5.00; half-life at 2 µM [8]: 12.1 h; pEC50 [10]: < 5.00; inhibition at 5 µM (CYP2C19 [11]): 31.6%
Cc1ccc(-c2noc(COc3ccc(CCC(=O)O)cc3)n2)cc1	6.52	99%	inhibition at 5 µM (CYP1A2): 13.6%; pEC50 [1]: < 5.00; inhibition at 5 µM (CYP3A4): 29.2%; fraction unbound at 5 h, 1 µM [2]: 0.015; inhibition at 5 µM (CYP2D6 [3]): -8.3%; solubility kinetic [4]: 334 µM (≈ 113 µg/mL); inhibition at 5 µM (CYP2C9 [5]): 4.26%; Papp A→B at 10 µM [6]: 27.3 ×10⁻⁶ cm/s; pEC50 [7]: < 5.00; half-life at 2 µM [8]: 6.22 h; pEC50 [10]: < 5.00; inhibition at 5 µM (CYP2C19 [11]): 20.6%
O=C(O)CCc1ccc(OCc2noc(-c3ccccc3)n2)cc1	5.58	42%	
O=C(O)CCc1ccc(OCc2ncc(-c3cccc(Cl)c3)o2)cc1	4.32	30%	
